Assay results published in patent US20100105772A1, “USE OF NOVEL LIPID MEDIATORS TO INHIBIT ANGIOGENESIS” (priority 2008, published 2010).

Legend:
[1] = tested on: VEGF-D mRNA; experiment: Real-time PCR of VEGF-D mRNA in suture-induced inflamed corneas; assay type: in vivo, mice; settings: after suture placement; vs vehicle-treated controls
Experimental: (§1) FIG. 4. The Impact of Lipoxin on the mRNA Expression of VEGFs and VEGFRs in Inflamed Corneas. ATLa or vehicle was subconjunctivally injected at 0 h and 48 h after suture placement. For each compound treatment, corneas were harvested from a group of mice at 24 h, and another group at 72 h after suture placement, as well as from normal untreated control corneas (6 corneas per group). (A) VEGF ligand species (VEGF-A, VEGF-C, VEGF-D) and (B) VEGFRs (VEGFR2 and VEGFR3) were tested by real-time PCR and normalized to GAPDH mRNA. Values are expressed as fold change over the normal control cornea. Results represent the mean (±SEM) of three samples per group (each sample consisted of 2 pooled corneas), and the data are representative of two independent experiments (*P<0.05, **P<0.001, ***P<0.0005, vs vehicle-treated group, t-test). […]
(§2) BALB/c mice were randomized to receive ATLa, or vehicle (normal saline) by subconjunctival injection in a masked fashion after suture or hydron pellet placement. […] ATLa was synthesized as described previously.^20 The physical properties were monitored routinely via LC/MS/MS matching the reported biological and physical properties prior to analysis in present experiments. […]

[2] = tested on: IL-1β-induced corneal HA and LA; experiment: Corneal micropocket assay with IL-1β pellets (vessel density); assay type: in vivo, mice; settings: IL-1β micropellet, day 7
Experimental: (§3) FIG. 6. ATLa Regulate IL-1β- and VEGF-A-induced Corneal HA and LA. Hydron pellets containing IL-1β or VEGF-A were implanted into the corneas on day 0. ATLa or vehicle was subconjunctivally injected every 48 h from 0 to 7 days after pellet implantation (4 corneas per treatment, for each pellet-type). A. Slit-lamp examination was performed on day 7 and representative images are shown. B. The density of blood vessels (CD31^high/LYVE-1^−) or lymphatic vessels (CD31^lowLYVE-1^high) covering each cornea was analyzed. Values are expressed as the mean (±SEM) of each treatment group (4 corneas per group) and the data are representative of two independent experiments (*P<0.05 vs vehicle-treated group, t-test).
(§4) The corneal micropocket assay in mice and quantification of the resultant NV has been described previously.^16,17 In brief, 0.3 μl of hydron pellets (IFN Sciences, New Brunswick, N.J.) containing 30 ng of murine IL-1β (R&D Systems, Minneapolis, Minn.) or 200 ng of VEGF-A (gift from BRB Preclinical Repository, National Cancer Institute) were prepared and implanted into the corneal stroma of male BALB/c mice. After 7 days the animals were sacrificed and the corneas were harvested for quantitative analysis of HA and LA.
(§5) BALB/c mice were randomized to receive ATLa, or vehicle (normal saline) by subconjunctival injection in a masked fashion after suture or hydron pellet placement. […]

[3] = tested on: VEGF-A mRNA; experiment: Real-time PCR of VEGF-A mRNA in suture-induced inflamed corneas; assay type: in vivo, mice; settings: 24 h and 72 h after suture placement; vs vehicle-treated group
Experimental: as §1, §2

[4] = tested on: TNF-α mRNA; experiment: Real-time PCR of TNF-α mRNA in suture-induced inflamed corneas; assay type: in vivo, mice; settings: vs vehicle
Experimental: (§6) FIG. 3. Lipoxin Reduces Cytokine mRNA Expressions in Inflamed Corneas. ATLa or vehicle was subconjunctivally injected at 0 h and 48 h after suture placement. For each compound treatment, corneas were harvested from a group of mice at 24 h, and another group at 72 h after suture placement, as well as from normal untreated control corneas (6 corneas per group). mRNA levels of inflammatory cytokines (including IL-1α, IL-1β, and TNF-α) were determined by real-time PCR. Data were normalized to GAPDH mRNA and values were expressed as the fold change over normal control corneas. Results represent the mean (±SEM) of three samples per group (each sample consisted of 2 pooled corneas), and data are representative of two independent experiments (*P<0.05, **P<0.001 vs vehicle-treated group, t-test). […]
as §2

[5] = tested on: mouse IL-1 beta; experiment: ELISA of IL-1 beta protein in homogenates of suture-induced inflamed corneas; assay type: in vivo, mice
Experimental: FIG. 7. ATLa Regulates IL-1β. Mice were treated at Oh and 48 h after suture-placement with ATLa or vehicle. Whole corneas were excised at 72 h, and subsequently freeze-thawed 3 times. Cornea was then homogenized using a pellet pestile motor with additional protease inhibitors. Homogenates were centrifuged at 12,000 rpm for 5 minutes and the supernatant was assayed for mouse IL-1 beta via ELISA (eBioscience, USA) according to the manufacturer's instructions.
The standard model for induction of inflammatory corneal NV is associated with development of intrastromal vessels in close association with a mixed-cell (primarily neutrophilic) infiltrate.^14,15 Three interrupted sutures (11-0 nylon, Sharpoint; Vanguard, Houston, Tex.) were placed intrastromally with two stromal incursions extending over 120° of the corneal circumference each to induce inflammatory corneal NV, which is also associated with significant LA, as described previously.^14 The corneas were followed by slit-lamp biomicroscopy for corneal NV development. […]
(§7) BALB/c mice were randomized to receive ATLa, or vehicle (normal saline) by subconjunctival injection in a masked fashion after suture or hydron pellet placement. […] ATLa was synthesized as described previously.^20 The physical properties were monitored routinely via LC/MS/MS matching the reported biological and physical properties prior to analysis in present experiments.

[6] = stable analog of LXA4/ATL; reference 36; cited from earlier work
[7] = tested on: VEGFR-2 mRNA; experiment: Real-time PCR of VEGFR-2 mRNA in suture-induced inflamed corneas; assay type: in vivo, mice; settings: 24 h and 72 h after suture placement; vs vehicle-treated group
Experimental: as §1, §2

[8] = tested on: neutrophils; experiment: Neutrophil infiltration in suture-induced inflamed corneas (NIMP-R14 staining of cross-sections); assay type: in vivo, mice; settings: for neutrophils per section: n=3, mean±SEM
Experimental: (§8) ATLa or vehicle was subconjunctivally injected at 0 h and 48 h after suture placement. For each compound treatment, eyes were enucleated from a group of mice at 24 h, and another group at 72 h after suture placement (3 eyes per group). Cross-sections were stained with anti-neutrophil (NIMP-R14) or anti-macrophage (F4/80) Ab, and 12 sections were used to enumerate the respective leukocyte populations. Results represent the mean (±SEM) of 3 eyes per group (*P<0.05, **P<0.001 vs vehicle-treated group, t-test), and data are representative of two independent experiments.
The standard model for induction of inflammatory corneal NV is associated with development of intrastromal vessels in close association with a mixed-cell (primarily neutrophilic) infiltrate.^14,15 Three interrupted sutures (11-0 nylon, Sharpoint; Vanguard, Houston, Tex.) were placed intrastromally with two stromal incursions extending over 120° of the corneal circumference each to induce inflammatory corneal NV, which is also associated with significant LA, as described previously.^14 The corneas were followed by slit-lamp biomicroscopy for corneal NV development. NV was graded between 0 and 3, with increments of 0.5, using a grid system per each corneal quadrant based on the centripetal extent of the neovascular branches from the limbus. Scores for each quadrant then summed to derive the NV index (range 0 to 12) for each eye, as previously described.^14
as §7
(§9) Full thickness corneal tissue or 8 μm-frozen sections were fixed in acetone for 15 minutes at room temperature. […] Finally, the samples were covered with mounting medium (Vector Laboratories, Burlingame, Calif.) and analyzed by epifluorescence microscopy (Eclipse E800; Nikon, Tokyo, Japan). […]

[9] = tested on: IL-1α mRNA; experiment: Real-time PCR of IL-1α mRNA in suture-induced inflamed corneas; assay type: in vivo, mice; settings: 24 h and 72 h after suture placement; vs vehicle
Experimental: as §6, §2

[10] = tested on: VEGFR-3 mRNA; experiment: Real-time PCR of VEGFR-3 mRNA in suture-induced inflamed corneas; assay type: in vivo, mice; settings: after suture placement; vs vehicle-treated controls
Experimental: as §1, §2

[11] = tested on: VEGF-A-induced corneal HA and LA; experiment: Corneal micropocket assay with VEGF-A pellets (vessel density); assay type: in vivo, mice; settings: VEGF-A micropellet, day 7
Experimental: as §3, §4, §5

[12] = tested on: macrophage phagocytosis (e.g. of apoptotic neutrophils); settings: reference 26; cited from earlier work
[13] = tested on: suture-induced corneal NV (HA and LA); experiment: Suture-induced inflammatory corneal angiogenesis (slit-lamp NV score, blood and lymphatic vessel density); assay type: in vivo, mice
Experimental: FIG. 5. Suture-induced Corneal HA is Reduced with Lipoxin. ATLa or vehicle was subconjunctivally injected every 48 h from 0 to 14 days after suture placement. A. In a masked fashion, corneal NV was scored biomicroscopically with a slit-lamp using a grid system. Values are expressed as the mean (±SEM) of 6 corneas. B. Whole corneal tissues were harvested on day 14 and double-stained with anti-CD31 (green) and anti-LYVE-1 (red) for epifluorescence microscopy (20× magnification). C. The density of blood vessels (CD31^high/LYVE-1^−) or lymphatic vessels (CD31^lowLYVE-1^high) covering the cornea was analyzed. Values are expressed as the mean (±SEM) of 6 corneas of per treatment group (**P<0.001 vs vehicle-treated group, t-test), and the data are representative of two independent experiments. […]
as §7, §9
To quantify corneal angiogenesis, digital pictures of corneal flat-mounts were taken using an image analysis system (Spot Image Analysis, Diagnostic Instruments, Sterling Heights, Mich.). The areas covered by CD31^high/LYVE-1^−-vessels (blood vessels) or CD31^lowLYVE-1^high vessels (lymphatics) were measured morphometrically using NIH Image J software (version 1.34s; http://rsb.info.nih.gov/ij). […]

[14] = tested on: macrophages; experiment: Macrophage infiltration in suture-induced inflamed corneas (F4/80 staining of cross-sections); assay type: in vivo, mice; settings: 72 h after suture placement
Experimental: as §8, with “experiments. […]” for “experiments.”
as §7, §9

[15] = tested on: IL-1β mRNA; experiment: Real-time PCR of IL-1β mRNA in suture-induced inflamed corneas; assay type: in vivo, mice; settings: 24 h and 72 h after suture placement; vs vehicle-treated controls
Experimental: as §6, §2

[16] = tested on: EC; settings: cited from earlier work
[17] = tested on: VEGF-C mRNA; experiment: Real-time PCR of VEGF-C mRNA in suture-induced inflamed corneas; assay type: in vivo, mice; settings: 24 h and 72 h after suture placement; vs vehicle-treated group
Experimental: as §1, §2

With `COC(=O)CCC[C@H](O)[C@H](O)/C=C/C=C/C=C\C=C\[C@H](O)COc1ccc(F)cc1` [ATLa, 15-epi-16-(para-fluoro)-phenoxy-lipoxin A4 methyl ester] as the compound, how does the “VEGF-D mRNA expression” value [1] read?
Its value is “not significantly altered”.

What about the BV density ([2]; n=4, mean±SEM) of the same compound?
Its BV density is 16.1±3.0%.

And the “LA stimulated by IL-1β” value ([2]; vs vehicle)?
The value was “no significant reduction”.

What about the “VEGF-A mRNA expression” value [3] of the same compound?
The value was “lower”.

And the “increase in TNF-α expression (mRNA)” value ([4]; 24 h after suture placement)?
Its value is “significantly suppressed”.

What about the “increase in TNF-α expression (mRNA)” value ([4]; 72 h after suture placement) of the same compound?
The value was “not at 72 h”.

And the “IL-1 beta in corneas” value ([5]; ELISA of corneal homogenate supernatant, 72 h, treated at 0 h and 48 h, n=4)?
The value was 21.3 ± 0.8 pg/mL.

And the “decrease in IL-1β protein level” value ([5]; ELISA, 72 h after suture placement, vs vehicle-treated group)?
The value was 70%.

And the “local inactivation (stability)” value [6]?
The value was “resists local inactivation”.

And the “VEGFR-2 mRNA expression” value [7]?
The value was “lower”.

And the “inhibition of neutrophils recruitment into the inflamed corneas” value ([8]; 24 and 72 h after suture placement, 100 ng/10 μl subconjunctival at 0 h and 48 h, vs vehicle)?
Its value is ~30%.

What about the neutrophils per section ([8]; 24 h after suture placement) of the same compound?
The neutrophils per section was 53±1 cells/section.

What about the neutrophils per section ([8]; 72 h after suture placement) of the same compound?
The neutrophils per section was 34±5 cells/section.

And the “expression of IL-1α (mRNA)” value [9]?
The value was “not significantly altered”.

What about the “VEGFR-3 mRNA expression” value [10] of the same compound?
The value was “not significantly altered”.

And the BV density ([11]; n=4, mean±SEM)?
The BV density was 5.9±0.4%.

What about the “LA stimulated by VEGF-A” value ([11]; vs vehicle) of the same compound?
The value was “no significant reduction”.

And the macrophage phagocytosis [12]?
Its macrophage phagocytosis is “increase”.

What about the “angiogenic response (growth of corneal neovessels, slit lamp biomicroscopy)” value ([13]; 2-week time course, injection every 48 h, vs vehicle control) of the same compound?
The value was “significant suppression”.

And the “BV density (CD31high/LYVE-1−)” value ([13]; day 14 after suture placement, n=6, mean±SEM)?
The value was 8.26±0.63%.

And the “density of lymphatic vessels (CD31low LYVE-1high)” value ([13]; day 14 after suture placement, vs vehicle controls)?
The value was “not observed”.

And the macrophages per section ([14]; n=3, mean±SEM)?
The macrophages per section was 46±5 cells/section.

What about the “reduction in macrophage infiltration” value ([14]; vs vehicle control group) of the same compound?
The value was 25-40%.

And the “reduction in the increase of IL-1β expression levels (mRNA)” value [15]?
The value was “more than 50%”.

What about the EC adhesion ([16]; VEGF-A-induced angiogenesis, references 37, 38) of the same compound?
Its EC adhesion is “inhibition”.

And the “VEGF-A-induced EC proliferation” value ([16]; reference 39)?
The value was “suppression”.

What about the “VEGF-C mRNA expression” value [17] of the same compound?
The value was “lower”.
